Laboratory results taken from PMC12947280, “An Antifungal with a Novel Mechanism of Action Discovered via Resistance Gene-Guided Genome Mining” (ACS Central Science, 2026).
Converted amounts (≈) assume the structure as drawn. Like-named read-outs stand apart in the source and are kept apart here.

Columns and labels:
Test in all cases: Antifungal screening, broth microdilution MIC
Assay type in all cases: cell-based
[1] = system: Fusarium oxysporum ATCC 48112; details: for MIC: ATCC48112, Fusarium oxysporum ATCC 48112
Procedure: (§1) Antifungal screening of 1
(§2) Antifungal screening was performed by Micromyx, LLC (Kalamazoo, Michigan, USA). Test organisms were either reference strains from the American Type Culture Collection (ATCC; Manassas, VA), the Centers for Disease Control and Prevention (CDC; Atlanta, GA), or clinical isolates from the Micromyx (MMX) collection. Upon receipt at Micromyx, the isolates were streaked under suitable conditions onto agar medium appropriate to each organism. The yeast isolates were incubated for 24 hr at 35 °C and the fungi were incubated for 7 to 13 days at 35 °C, as appropriate. Colonies harvested from these growth plates were resuspended in the appropriate medium containing a cryoprotectant. Aliquots of each suspension were then frozen […]
(§3) Prior to testing, the yeast isolates were streaked from frozen vials onto Sabouraud Dextrose Agar (SAB; Becton Dickenson [BD]/BBL; Sparks, MD, Lot No. 2228660) and were incubated at 35°C for 24 hr. Additional fungal isolates were streaked from frozen vials onto potato dextrose agar (BD/BBL; Sparks, MD, Lot No. 2046481) and incubated under optimal conditions for […]
(§4) All MIC measurements were performed in RPMI1640 from Hyclone Laboratories (Logan, UT;
(§5) Cat. No. SH3001104; Lot No. AC10257966A) buffered with MOPS to pH-7 from Millipore […]
(§6) MIC values were determined using a broth microdilution procedure described by CLSI. 5,6.
(§7) Automated liquid handlers (Multidrop 384, Labsystems, Helsinki, Finland; Biomek 3000 and […]
(§8) Biomek FX, Beckman Coulter Fullerton CA) were used to conduct serial dilutions and liquid […]
(§9) Solutions of 1 were added in an 11 point 2x serial dilution in DMSO with a maximum tested concentration of 32 μg/ml in the culture medium. Drug solution was added at 1% v/v into 200 μl […]
(§10) A standardized inoculum of each test organism was prepared in appropriate media per CLSI methods.5,6 The plates were then inoculated with 10 µL of the diluted inoculum using the Biomek 3000 from low to high drug concentration, resulting in a final concentration of approximately 0.5 to 2.5 x 10^3 CFU/mL for yeast and 0.2 to 2.5 x 10^4 CFU/mL for the other fungi. An un-inoculated plate was incubated for the purpose of assessing solubility of the drug […]
(§11) The plates were stacked 3 to 4 high, covered with a sterile lid on the top plate, and incubated aerobically at 35 °C for 24, 48, and 72 h. For yeast, both the MIC based on complete inhibition and 50% inhibition were reported at 24 and 48 h. For other fungal isolates, the MIC values were recorded at 24 and 48 hr and were based on complete inhibition and 50% inhibition.
(§12) Intact protein LCMS analysis
(§13) 10 μM of recombinant S. cerevisiae ALS was incubated with 10 μM compound 1 in buffer (50 mM Tris pH 7.5, 100 mM KCl, 10 uM FAD, 1 mM TPP, 10 mM MgCl2 (with 2.5% DMSO from compound)) at 22 °C for 30 min. Unreacted 1 was removed by passing the reaction mixture through a 30 kDa MWCO filter (Millipore). The collected protein was then denatured and reduced by incubation with 6 M urea and 10 mM DTT at 37 °C for 1 h followed by 20 mM iodoacetamide alkylation for 30 min in dark. This reaction mixture then underwent buffer exchange into 100 mM Tris-HCl pH 8.0 and 10 mM CaCl2 buffer using a 30 kDa MWCO filter.
(§14) The protein was then incubated with sequencing grade chymotrypsin (Promega) (15:1,w/w) for […]
(§15) After digestion, the peptide mixture was immediately analysed by LC-MS/MS using a Waters I-class UPLC equipped with an ACQUITY UPLC BEH C18 column (2.1x50 mm, 1.7 µm, Waters) at 50 °C coupled to a Waters Synapt G2Si MS. The sample was injected and subjected to an LC gradient starting from 0.5% mobile phase B (ACN with 0.1% formic acid) for 5 min with linear increase to 40% B over 35 min. Mobile phase A was 0.1% formic acid water. Flow rate was maintained at 0.3 ml/min. MS/MS data was acquired in positive ionization mode with data dependent MS/MS acquisition. Peptide mapping was performed with PEAKs Studio 8.0 (Bioinformatics Solutions Inc.) followed by manual review to identify peptides putatively modified by covalent addition of 1. […]

[2] = system: Aspergillus terreus ATCC MYA-3628; details: for MIC: Aspergillus terreus ATCC MYA-3628
Procedure: as §1, §2, §3, §4, §5, §6, §7, §8, §9, §10, §11, §12, §13, §14, §15

Aspergillus fumigatus = details: for MIC: Aspergillus fumigatus
Procedure: as §1, §2, §3, §4, §5, §6, §7, §8, §9, §10, §11, §12, §13, §14, §15

[3] = system: Fusarium solani ATCC MYA-3636; details: for MIC: Fusarium solani ATCC MYA-3636
Procedure: as §1, §2, §3, §4, §5, §6, §7, §8, §9, §10, §11, §12, §13, §14, §15

[4] = 24 hr, read-out: MIC 100% growth inhibition
[5] = 24 hr, read-out: MIC >50% growth inhibition
[6] = 48 hr, read-out: MIC 100% growth inhibition
[7] = 48 hr, read-out: MIC >50% growth inhibition

In the case of `CCCC1C(C)=CC2CC=CC3(C)C2C1C(=O)C31C(=O)NC(CCCO)C1=O` (stereo not drawn) [compound 1], the MIC [1, 4] is reported as > 32 µg/mL, the MIC [1, 5] is reported as > 32 µg/mL and the MIC [1, 6] is reported as > 32 µg/mL. The MIC [1, 7] was > 32 µg/mL, the “MIC (Table S5)” value ([1]; Fusarium oxysporum, species summary) was > 32 and the MIC [2, 4] was > 32 µg/mL. The MIC [2, 5] was > 32 µg/mL, the MIC [2, 6] was > 32 µg/mL and the MIC [2, 7] was > 32 µg/mL. For the same compound, the “MIC (Table S5)” value ([2]; Aspergillus terreus, species summary) was > 32, the “MIC (Table S5)” value (Aspergillus fumigatus; A. fumigatus, species summary) was 2-16 and the MIC (Aspergillus fumigatus; 24 h, read-out: MIC 100% growth inhibition, Aspergillus fumigatus ATCC MYA-3626, 24 hr) was 4 µg/mL (≈ 10.4 µM). It also gave an MIC (Aspergillus fumigatus; 24 h, read-out: MIC 100% growth inhibition, Aspergillus fumigatus CDC 0731 (azole resistant), 24 hr) of 16 µg/mL (≈ 41.5 µM), an MIC (Aspergillus fumigatus; 24 h, read-out: MIC 100% growth inhibition, Aspergillus fumigatus CDC 0732 (azole resistant), 24 hr) of 8 µg/mL (≈ 20.8 µM) and an MIC (Aspergillus fumigatus; 24 h, read-out: MIC 100% growth inhibition, Aspergillus fumigatus CDC 0733 (azole resistant), 24 hr) of 8 µg/mL (≈ 20.8 µM). The MIC (Aspergillus fumigatus; 24 h, read-out: MIC 100% growth inhibition, Aspergillus fumigatus CDC 0734 (azole resistant), 24 hr) was 8 µg/mL (≈ 20.8 µM), the MIC (Aspergillus fumigatus; 24 h, read-out: MIC 100% growth inhibition, Aspergillus fumigatus CDC 0735 (azole resistant), 24 hr) was 8 µg/mL (≈ 20.8 µM) and the MIC (Aspergillus fumigatus; 24 h, read-out: MIC 100% growth inhibition, Aspergillus fumigatus CDC 0736 (azole susceptible), 24 hr) was 8 µg/mL (≈ 20.8 µM). The MIC (Aspergillus fumigatus; 24 h, read-out: MIC 100% growth inhibition, Aspergillus fumigatus CDC 0737 (azole susceptible), 24 hr) was 16 µg/mL (≈ 41.5 µM), the MIC (Aspergillus fumigatus; 24 h, read-out: MIC 100% growth inhibition, Aspergillus fumigatus CDC 0738 (azole susceptible), 24 hr) was 2 µg/mL (≈ 5.19 µM) and the MIC (Aspergillus fumigatus; 24 h, read-out: MIC 100% growth inhibition, Aspergillus fumigatus CDC 0739 (azole susceptible), 24 hr) was 4 µg/mL (≈ 10.4 µM). It also gave an MIC (Aspergillus fumigatus; 24 h, read-out: MIC 100% growth inhibition, Aspergillus fumigatus CDC 0740 (azole susceptible), 24 hr) of 4 µg/mL (≈ 10.4 µM), an MIC (Aspergillus fumigatus; 24 h, read-out: MIC >50% growth inhibition, Aspergillus fumigatus ATCC MYA-3626, 24 hr) of 4 µg/mL (≈ 10.4 µM) and an MIC (Aspergillus fumigatus; 24 h, read-out: MIC >50% growth inhibition, Aspergillus fumigatus CDC 0731 (azole resistant), 24 hr) of 2 µg/mL (≈ 5.19 µM). It also gave an MIC (Aspergillus fumigatus; 24 h, read-out: MIC >50% growth inhibition, Aspergillus fumigatus CDC 0732 (azole resistant), 24 hr) of 2 µg/mL (≈ 5.19 µM), an MIC (Aspergillus fumigatus; 24 h, read-out: MIC >50% growth inhibition, Aspergillus fumigatus CDC 0733 (azole resistant), 24 hr) of 4 µg/mL (≈ 10.4 µM) and an MIC (Aspergillus fumigatus; 24 h, read-out: MIC >50% growth inhibition, Aspergillus fumigatus CDC 0734 (azole resistant), 24 hr) of 4 µg/mL (≈ 10.4 µM). The MIC (Aspergillus fumigatus; 24 h, read-out: MIC >50% growth inhibition, Aspergillus fumigatus CDC 0735 (azole resistant), 24 hr) was 4 µg/mL (≈ 10.4 µM), the MIC (Aspergillus fumigatus; 24 h, read-out: MIC >50% growth inhibition, Aspergillus fumigatus CDC 0736 (azole susceptible), 24 hr) was 4 µg/mL (≈ 10.4 µM) and the MIC (Aspergillus fumigatus; 24 h, read-out: MIC >50% growth inhibition, Aspergillus fumigatus CDC 0737 (azole susceptible), 24 hr) was 2 µg/mL (≈ 5.19 µM). The MIC (Aspergillus fumigatus; 24 h, read-out: MIC >50% growth inhibition, Aspergillus fumigatus CDC 0738 (azole susceptible), 24 hr) was 1 µg/mL (≈ 2.59 µM), the MIC (Aspergillus fumigatus; 24 h, read-out: MIC >50% growth inhibition, Aspergillus fumigatus CDC 0739 (azole susceptible), 24 hr) was 1 µg/mL (≈ 2.59 µM) and the MIC (Aspergillus fumigatus; 24 h, read-out: MIC >50% growth inhibition, Aspergillus fumigatus CDC 0740 (azole susceptible), 24 hr) was 1 µg/mL (≈ 2.59 µM). The MIC (Aspergillus fumigatus; 48 h, read-out: MIC 100% growth inhibition, Aspergillus fumigatus ATCC MYA-3626, 48 hr) was > 32 µg/mL, the MIC (Aspergillus fumigatus; 48 h, read-out: MIC 100% growth inhibition, Aspergillus fumigatus CDC 0731 (azole resistant), 48 hr) was > 32 µg/mL and the MIC (Aspergillus fumigatus; 48 h, read-out: MIC 100% growth inhibition, Aspergillus fumigatus CDC 0732 (azole resistant), 48 hr) was > 32 µg/mL. For the same compound, the MIC (Aspergillus fumigatus; 48 h, read-out: MIC 100% growth inhibition, Aspergillus fumigatus CDC 0733 (azole resistant), 48 hr) was > 32 µg/mL, the MIC (Aspergillus fumigatus; 48 h, read-out: MIC 100% growth inhibition, Aspergillus fumigatus CDC 0734 (azole resistant), 48 hr) was > 32 µg/mL and the MIC (Aspergillus fumigatus; 48 h, read-out: MIC 100% growth inhibition, Aspergillus fumigatus CDC 0735 (azole resistant), 48 hr) was > 32 µg/mL. For the same compound, the MIC (Aspergillus fumigatus; 48 h, read-out: MIC 100% growth inhibition, Aspergillus fumigatus CDC 0736 (azole susceptible), 48 hr) was > 32 µg/mL, the MIC (Aspergillus fumigatus; 48 h, read-out: MIC 100% growth inhibition, Aspergillus fumigatus CDC 0737 (azole susceptible), 48 hr) was > 32 µg/mL and the MIC (Aspergillus fumigatus; 48 h, read-out: MIC 100% growth inhibition, Aspergillus fumigatus CDC 0738 (azole susceptible), 48 hr) was > 32 µg/mL. The MIC (Aspergillus fumigatus; 48 h, read-out: MIC 100% growth inhibition, Aspergillus fumigatus CDC 0739 (azole susceptible), 48 hr) was 32 µg/mL (≈ 83 µM), the MIC (Aspergillus fumigatus; 48 h, read-out: MIC 100% growth inhibition, Aspergillus fumigatus CDC 0740 (azole susceptible), 48 hr) was 32 µg/mL (≈ 83 µM) and the MIC (Aspergillus fumigatus; 48 h, read-out: MIC >50% growth inhibition, Aspergillus fumigatus ATCC MYA-3626, 48 hr) was > 32 µg/mL. For the same compound, the MIC (Aspergillus fumigatus; 48 h, read-out: MIC >50% growth inhibition, Aspergillus fumigatus CDC 0731 (azole resistant), 48 hr) was > 32 µg/mL, the MIC (Aspergillus fumigatus; 48 h, read-out: MIC >50% growth inhibition, Aspergillus fumigatus CDC 0732 (azole resistant), 48 hr) was > 32 µg/mL and the MIC (Aspergillus fumigatus; 48 h, read-out: MIC >50% growth inhibition, Aspergillus fumigatus CDC 0733 (azole resistant), 48 hr) was > 32 µg/mL. The MIC (Aspergillus fumigatus; 48 h, read-out: MIC >50% growth inhibition, Aspergillus fumigatus CDC 0734 (azole resistant), 48 hr) was > 32 µg/mL, the MIC (Aspergillus fumigatus; 48 h, read-out: MIC >50% growth inhibition, Aspergillus fumigatus CDC 0735 (azole resistant), 48 hr) was 32 µg/mL (≈ 83 µM) and the MIC (Aspergillus fumigatus; 48 h, read-out: MIC >50% growth inhibition, Aspergillus fumigatus CDC 0736 (azole susceptible), 48 hr) was 16 µg/mL (≈ 41.5 µM). The MIC (Aspergillus fumigatus; 48 h, read-out: MIC >50% growth inhibition, Aspergillus fumigatus CDC 0737 (azole susceptible), 48 hr) was 16 µg/mL (≈ 41.5 µM), the MIC (Aspergillus fumigatus; 48 h, read-out: MIC >50% growth inhibition, Aspergillus fumigatus CDC 0738 (azole susceptible), 48 hr) was 32 µg/mL (≈ 83 µM) and the MIC (Aspergillus fumigatus; 48 h, read-out: MIC >50% growth inhibition, Aspergillus fumigatus CDC 0739 (azole susceptible), 48 hr) was 16 µg/mL (≈ 41.5 µM). For the same compound, the MIC (Aspergillus fumigatus; 48 h, read-out: MIC >50% growth inhibition, Aspergillus fumigatus CDC 0740 (azole susceptible), 48 hr) was 16 µg/mL (≈ 41.5 µM), the MIC [3, 4] was > 32 µg/mL and the MIC [3, 5] was > 32 µg/mL. For the same compound, the MIC [3, 6] was > 32 µg/mL, the MIC [3, 7] was > 32 µg/mL and the “MIC (Table S5)” value ([3]; Fusarium solani, species summary) was > 32.
